Measurements taken from US12234216B2, “Isotopologues salts, crystalline forms, stereoisomers, of methylone and ethylone and methods of use thereof” (Terran Biosciences Inc., priority 2021, dated 2025).
Structures can show the parent of a compound that is named as a salt.

Legend:
[1] = Plasma and brain concentration at the end of the zero maze study; assay type: in vivo, rat; conditions: terminal samples after 5, 15, 30 mg/kg ip; FIG. 68 and FIG. 69
Protocol: Terminal sampling. At the end of the study, terminal blood was collected from 2 of the vehicle treated rats (>5 mL) and from all methylone HCl treated rats (500 uL) by CP under CO2. Blood samples were placed into Eppendorf tubes on ice containing 22 μL/mL blood (vehicle treated) or 11 μL EDTA (93 mg/mL) (Methylone HCl treated rats) and gently mixed. After no longer than 30 min, blood samples were centrifuged at 10,000 rpm×3 min and plasma samples (>2 mL (vehicle) or 2×100 μL (Methylone HCl treated) placed into Eppendorf tubes (Vehicle) or 96 well plates on dry ice. Immediately after blood sampling, brains were excised, rinsed in saline, blotted, weighed and snap-frozen in liquid N2. All samples were stored at −20° C. until dispatched on dry ice for analysis.
Terminal sampling. At the end of the study, terminal blood was collected from 2 of the vehicle treated rats (>5 mL) and from all S-methylone HCl treated rats (500 uL) by CP under CO2. Blood samples were placed into Eppendorf tubes on ice containing 22 μL/mL blood (vehicle treated) or 11 μL EDTA (93 mg/mL) (S-methylone HCl treated rats) and gently mixed. […]

[2] = system: participants diagnosed with at least moderate post-traumatic stress disorder (PTSD); assay: Double-blind, randomized, placebo-controlled clinical trial of methylone-assisted psychotherapy in PTSD; assay type: in vivo, human
Protocol: A multicenter, randomized, double-blind, placebo-controlled trial is conducted to assess the efficacy and safety of methylone-assisted psychotherapy versus psychotherapy with placebo control in participants diagnosed with at least moderate post-traumatic stress disorder (PTSD).
This multicenter, randomized, double-blind, placebo-controlled trial is conducted at various sites in the United States with IRB approval from each study site. A flexible dose of methylone hydrochloride salt or placebo, followed by a supplemental half-dose unless contraindicated by patient's previous response or medical history, is also administered during the Treatment Period with psychotherapy in at least 3 blinded monthly Experimental Sessions. The Supplemental Dose extends the duration of drug effects on the participants during an Experimental Session. Methylone test groups are further subdivided into specific groups receiving only racemic methylone hydrochloride salt, S-methylone hydrochloride salt, or R-methylone hydrochloride salt. An optional Risk Evaluation and Mitigation Strategy (REMS) Protocol may be implemented for the racemic methylone, S-methylone, and placebo-groups. The Treatment Period lasts for approximately 12 weeks. During the Treatment Period, each Experimental Session is followed by three Intervening Sessions of non-drug psychotherapy. Each Experimental Session involves an overnight stay. The Primary Outcome measure, the change in Clinician Administered PTSD Scale for DSM-5 (CAPS-5), is determined by a blinded Independent Rater (IR) pool multiple times throughout the study. The study consists of separate periods for each participant. Initially, prospective participants undergo a Screening Period involving an initial eligibility assessment, a medical history intake, informed consent, and enrollment of eligible participants. Next, a Preparation Period is undertaken for enrolled participants involving medication tapering and clinical baseline assessments to confirm each participant meets enrollment criteria. As part of the Preparation Period, a detailed assessment of co-morbidities to PTSD is recorded. Participants may remain on prescribed courses of selective serotonin reuptake inhibitor (SSRI) or serotonin and norepinephrine reuptake inhibitor (SNRI) treatment. Dosages and/or frequency of administration of a prescribed SSRI or SNRI may be adjusted to fit within study parameters. Participants may be required to taper a prescribed course of medication in order to maintain eligibility within the study. The Treatment Period consists of three monthly Experimental Sessions and associated Intervening Sessions of integrative behavioral psychotherapy. The Treatment Period lasts approximately 12 weeks. Following the Treatment Period is a Follow-up Period and Study Conclusion. During the Follow-up Period and Study Conclusion, participants complete 4 weeks with no study visits, followed by a Study Conclusion visit.
This study compares the effects of three blinded Experimental Sessions of psychotherapy in combination with flexible doses of methylone or placebo administered as described below. Non-drug preparatory and intervening psychotherapy sessions are also included. Patient's weight is determined for dosage calculation. Initial dose is 100 mg unless this will result in a dosage of less than 1.5 mg/kg of patient weight. Initial dose thereby adjusted upward in 25 mg increments to deliver the lowest dose possible of at least 1.5 mg/kg of patient weight. Initial dose for Experimental Session 2 and 3 is cumulative dose calculated by adding the initial dose plus REMS protocol dose used the previous Experimental Session for each patient.
Randomization occurs prior to the initiation of Experimental Session 1. Each participant is provided the next randomized number in a sequence by a blinded study monitor. […]

[3] = Study Conclusion, vs placebo-treated controls

With `CNC(C)C(=O)c1ccc2c(c1)OCO2` (racemic) [(rac)-Methylone Hydrochloride, 3,4-methylenedioxy-N-methylcathinone hydrochloride] the “concentration in plasma and brain” value [1] was “increased in both brain and plasma at the higher doses”, the “CAPS-5 assessments compared to placebo-treated controls” value ([2]; Intervening Session 1C, 2C, 3C and Study Conclusion) was “Significant improvements in CAPS-5 assessments” and the “daytime sleepiness as measured by ESS” value ([2]; Study Conclusion) was “significant improvement in lessening daytime sleepiness”. The “clinician-rated functional impairment score as measured by SDS” value [2, 3] was “significant improvement in clinician-rated functional impairment score”, the “depression as measured by HAM-D” value [2, 3] was “significant improvement depression” and the “change in CAPS-5 assessment compared to the placebo group” value ([2]; Study Conclusion, 100-200 mg p.o. initial dose, 3 Experimental Sessions with psychotherapy) was “significant mean reduction in CAPS-5 assessment”.
